Results on 19 compounds are retold here after patent publication US7452887B2, “Quinoline- and isoquinoline-based compounds exhibiting ATP-utilizing enzyme inhibitory activity, and compositions, and uses thereof” (Amphora Discovery Corporation, priority 2004, dated 2008).

Common to all, as to assay: HTS ATP-utilizing enzyme assay, off-chip mobility-shift (Caliper HTS 250)
Holding throughout (type): biochemical
Details in all cases: test compound 10 μM, kinase listed = active (greater than six-sigma from the mean activity of inactive compounds)

One test addresses MAPKAPK2 (Homo sapiens, UniProt P49137). The procedure, abridged:
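Phosphorylation of a peptide substrate was quantified by Caliper mobility-shift separation of substrate and product after 2.5 h at 20-22 °C, with compounds tested at 10 μM. Inhibition was normalized to EDTA-quenched (100%) and DMSO (0%) controls; six-sigma thresholds flagged actives.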

The next test has as its target T1, NEK2 (Homo sapiens, UniProt P51955).
T1 sequence (P51955 1-445): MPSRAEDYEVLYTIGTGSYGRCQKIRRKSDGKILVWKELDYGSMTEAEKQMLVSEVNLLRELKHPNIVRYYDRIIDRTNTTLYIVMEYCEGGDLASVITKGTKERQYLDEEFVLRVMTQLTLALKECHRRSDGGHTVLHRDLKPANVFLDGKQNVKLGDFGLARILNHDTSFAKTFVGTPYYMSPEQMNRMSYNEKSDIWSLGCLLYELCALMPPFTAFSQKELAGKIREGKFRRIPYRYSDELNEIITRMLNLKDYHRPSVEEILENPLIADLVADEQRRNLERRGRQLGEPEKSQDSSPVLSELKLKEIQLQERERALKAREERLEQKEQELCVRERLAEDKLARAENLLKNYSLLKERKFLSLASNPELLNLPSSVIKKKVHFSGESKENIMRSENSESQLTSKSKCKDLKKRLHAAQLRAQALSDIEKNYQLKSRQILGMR
The source says:
(§1) The following procedures describe the reagent and plate preparation for a HTS of an ATP-utilizing enzyme, such as a protein kinase, run in an off-chip mobility-shift assay format. The following provides an HTS protocol for running a protein kinase HTS screen on a Caliper HTS 250 microfluidics system. The following parameters are dependent on the protein kinase used and can be determined by one skilled in the art as part of a typical assay development process. For example, the peptide substrate used can be identified from the current literature, by screening a peptide library of potential protein kinase substrates, or by other applicable means accepted in the field.
(§2) The following table provides typical screen assay parameters appropriate for a Caliper HTS 250 microfluidics system.
(§3) The reagents and buffers listed in the following table are generally applicable for developing and running an HTS screen on a human protein kinase using the Caliper HTS 250 system.
(§4) The following reagents were prepared using the previously described buffers.
(§5) A 2× Master Buffer solution was prepared by combining 200 mL of 1 M HEPES, pH 7.5, 2 mL of 10% Triton X-100, 20 mL of 10% BSA, and 778 mL of H2O.
(§6) A 2.5× Substrate Buffer solution was prepared by combining 177.408 mL of 2× Master Buffer, 0.887 mL of 1 mM peptide-X, and 176.521 mL of H2O.
(§7) A 1.55× Termination Buffer solution was prepared by combining 762.05 mL of 2× Master Buffer, 95.1 mL of 0.5 M EDTA, and 666.94 mL of H2O.
(§8) A TCB Buffer solution was prepared by combining 125 mL of 2× Master Buffer, 10 mL of 0.5 M EDTA, 6.25 mL of 4% coating reagent, 1.01 mL of 100% DMSO, and 107.74 mL H2O.
(§9) A Dye Trough solution was prepared by combining 0.5 μL of peptide-X, and 2,999.5 μL of IX Master Buffer.
(§10) A 1.06× Assay Buffer solution was prepared by combining 205.15 mL of 2× Master Buffer, and 181.92 mL of H2O.
(§11) Assays to determine the kinase inhibitory activity of compounds of the present disclosure were performed using a Caliper HTS 250 microfluidics device, Greiner U-bottom assay plates, a Multidrop for transfer of reagents, and Biomek FX (AMNCBM03) software. Initially, 2.4 μL of a 1 mM solution of a test compound in 100% DMSO was added to a well of the Greiner U-bottom plate. A single Greiner U-bottom plate having 24×16 wells could include multiple test compounds. Next, […] of 1.06× Assay Buffer was added to each well of the assay plate. Using the Biomek FX, 10 μL of 0.5 M EDTA was added by the span-8 to wells, indicated as 100% Control and 2.4 μL of 100% DMSO was added by the span-8 to wells, indicated as 0% Control. Using the Multidrop, 10 μL of 2.5× Enzyme Buffer, followed by 10 μL of 2.5× Substrate Buffer was added to each well of the assay plate. The total reaction volume in each well was 25 μL, and the concentration of the test compound was 10 μM. The assay plate was incubated for 2.5 hrs at 20° C. to 22° C. After the incubation period, using the Multidrop, 45 μL of 1.55× Termination Buffer was added to each well of the assay plate to stop the reaction. The inhibition of the ATP-utilizing enzyme, such as a particular protein kinase, was determined by measuring the ratio of the peptide substrate to phosphorylated product for each well of the assay plate using the Caliper HTS 250 system.
(§12) The use of six-sigma statistical limits represents a conservative method for declaring potential hits among targets. The six-sigma activity, as well as the mean population activity, can be different for each target enzyme. This method has an expected false positive rate, from an in-control measurement process, of one in one million.

A further test concerns the target T2, PRAK (Homo sapiens, UniProt Q8IW41).
T2 sequence (Q8IW41 1-473): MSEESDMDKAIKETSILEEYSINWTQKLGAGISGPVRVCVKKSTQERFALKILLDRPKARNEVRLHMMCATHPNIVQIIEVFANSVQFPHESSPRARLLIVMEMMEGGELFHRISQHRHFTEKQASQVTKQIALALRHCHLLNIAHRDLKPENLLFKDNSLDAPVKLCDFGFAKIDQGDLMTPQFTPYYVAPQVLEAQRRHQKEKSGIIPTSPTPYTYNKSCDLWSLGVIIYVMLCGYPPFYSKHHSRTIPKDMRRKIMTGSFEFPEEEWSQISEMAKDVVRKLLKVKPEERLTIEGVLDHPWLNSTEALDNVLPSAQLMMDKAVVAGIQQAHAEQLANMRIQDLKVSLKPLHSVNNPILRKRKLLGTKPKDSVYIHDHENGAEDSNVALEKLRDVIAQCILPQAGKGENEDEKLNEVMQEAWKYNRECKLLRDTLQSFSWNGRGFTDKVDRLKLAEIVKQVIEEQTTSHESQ
Source text: as §1, §2, §3, §4, §5, §6, §7, §8, §9, §10, §11, §12

Chain of MAPKAPK2 (P49137 whole entry): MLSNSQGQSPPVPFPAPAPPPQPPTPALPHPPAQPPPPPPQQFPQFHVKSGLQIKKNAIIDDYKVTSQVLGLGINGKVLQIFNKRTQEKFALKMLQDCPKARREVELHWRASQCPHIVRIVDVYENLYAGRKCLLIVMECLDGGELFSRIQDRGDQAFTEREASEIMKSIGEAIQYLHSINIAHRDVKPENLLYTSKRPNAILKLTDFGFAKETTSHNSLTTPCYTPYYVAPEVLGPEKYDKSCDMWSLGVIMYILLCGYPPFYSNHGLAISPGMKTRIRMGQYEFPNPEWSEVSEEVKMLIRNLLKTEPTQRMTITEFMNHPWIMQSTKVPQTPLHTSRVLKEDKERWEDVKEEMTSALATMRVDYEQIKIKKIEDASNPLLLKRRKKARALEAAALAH

For `CN1CCN(c2ccc(Nc3ccnc4ccc(-c5ccc(C#N)cc5)cc34)cc2)CC1` [4-(4-(4-(4-methylpiperazin-1-yl)phenylamino)quinolin-6-yl)benzonitrile], the Activity result on MAPKAPK2 is reported as “MAPKAPK2”; on NEK2, “NEK2”; on PRAK, “PRAK”.
As to `Cc1cccc(-c2ccc3nccc(Nc4ccc(N5CCN(C)CC5)cc4)c3c2)c1C` [6-(2,3-dimethylphenyl)-N-(4-(4-methylpiperazin-1-yl)phenyl)quinolin-4-amine], the Activity entry on MAPKAPK2 was “MAPKAPK2”; at NEK2, “NEK2”; at PRAK, “PRAK”.
As to `CN1CCN(c2ccc(Nc3ccnc4ccc(-c5ccc(Cl)cc5Cl)cc34)cc2)CC1` [6-(2,4-dichlorophenyl)-N-(4-(4-methylpiperazin-1-yl)phenyl)quinolin-4-amine], the values for the Activity entry at MAPKAPK2, on NEK2 and on PRAK were “MAPKAPK2”, “NEK2” and “PRAK”, respectively.
Turning to `CN1CCN(c2ccc(Nc3ccnc4ccc(-c5ccc(F)cc5F)cc34)cc2)CC1` [6-(2,4-difluorophenyl)-N-(4-(4-methylpiperazin-1-yl)phenyl)quinolin-4-amine], the Activity entry at MAPKAPK2 is listed as “MAPKAPK2”; at NEK2, “NEK2”; at PRAK, “PRAK”.
Taken in the same sequence, the figures for `COc1ccc(-c2ccc3nccc(Nc4ccc(N5CCN(C)CC5)cc4)c3c2)c(OC)c1` [6-(2,4-dimethoxyphenyl)-N-(4-(4-methylpiperazin-1-yl)phenyl)quinolin-4-amine] were “MAPKAPK2”, “NEK2” and “PRAK”.
Take `CN1CCN(c2ccc(Nc3ccnc4ccc(-c5cc(F)ccc5F)cc34)cc2)CC1` [6-(2,5-difluorophenyl)-N-(4-(4-methylpiperazin-1-yl)phenyl)quinolin-4-amine]: the Activity result at MAPKAPK2 is on record as “MAPKAPK2”; at NEK2 it was “NEK2”; at PRAK, “PRAK”.
Taken in the same sequence, the figures for `CCc1ccccc1-c1ccc2nccc(Nc3ccc(N4CCN(C)CC4)cc3)c2c1` [6-(2-ethylphenyl)-N-(4-(4-methylpiperazin-1-yl)phenyl)quinolin-4-amine] were “MAPKAPK2”, “NEK2” and “PRAK”.
As to `COc1ccccc1-c1ccc2nccc(Nc3ccc(N4CCN(C)CC4)cc3)c2c1` [6-(2-methoxyphenyl)-N-(4-(4-methylpiperazin-1-yl)phenyl)quinolin-4-amine], the Activity entry at MAPKAPK2 is “MAPKAPK2”; on NEK2, “NEK2”; at PRAK it was “PRAK”.
Taken in the same sequence, the figures for `Cc1ccc(-c2ccc3nccc(Nc4ccc(N5CCN(C)CC5)cc4)c3c2)cc1C` [6-(3,4-dimethylphenyl)-N-(4-(4-methylpiperazin-1-yl)phenyl)quinolin-4-amine] were “MAPKAPK2”, “NEK2” and “PRAK”.
Taken in the same sequence, the figures for `CN1CCN(c2ccc(Nc3ccnc4ccc(-c5cccc(Cl)c5)cc34)cc2)CC1` [6-(3-chlorophenyl)-N-(4-(4-methylpiperazin-1-yl)phenyl)quinolin-4-amine] were “MAPKAPK2”, “NEK2” and “PRAK”.
Regarding `CC(C)c1ccc(-c2ccc3nccc(Nc4ccc(N5CCN(C)CC5)cc4)c3c2)cc1` [6-(4-isopropylphenyl)-N-(4-(4-methylpiperazin-1-yl)phenyl)quinolin-4-amine], the Activity entry on MAPKAPK2 is on record as “MAPKAPK2”; on NEK2, “NEK2”; at PRAK it was “PRAK”.
Turning to `COc1ccc(C(C)C)cc1-c1ccc2nccc(Nc3ccc(N4CCN(C)CC4)cc3)c2c1` [6-(5-isopropyl-2-methoxyphenyl)-N-(4-(4-methylpiperazin-1-yl)phenyl)quinolin-4-amine], the results for the Activity entry on MAPKAPK2 and at PRAK were “MAPKAPK2” and “PRAK”, respectively.
Taken in the same sequence, the figures for `CCCN1CCN(c2ccc(Nc3ccnc4ccc(-c5ccccc5)cc34)cc2)CC1` [6-phenyl-N-(4-(4-propylpiperazin-1-yl)phenyl)quinolin-4-amine] were “MAPKAPK2” and “PRAK”.
In the case of `CN1CCN(c2ccc(Nc3ccnc4ccc(-c5ccc(CO)cc5)cc34)cc2)CC1` [(4-(4-(4-(4-methylpiperazin-1-yl)phenylamino)quinolin-6-yl)phenyl)methanol], the Activity entry is “MAPKAPK2” on MAPKAPK2 and “PRAK” at PRAK.
Regarding `CCN1CCN(c2ccc(Nc3ccnc4ccc(-c5ccccc5)cc34)cc2)CC1` [N-(4-(4-ethylpiperazin-1-yl)phenyl)-6-phenylquinolin-4-amine], the Activity result was “MAPKAPK2” on MAPKAPK2 and “PRAK” on PRAK.
As for `CN1CCN(c2ccc(Nc3ccnc4ccc(-c5cccc(OC(F)(F)F)c5)cc34)cc2)CC1` [N-(4-(4-methylpiperazin-1-yl)phenyl)-6-(3-(trifluoromethoxy)phenyl)quinolin-4-amine], the Activity result is “MAPKAPK2” at MAPKAPK2 and “PRAK” on PRAK.
With `CN1CCN(c2ccc(Nc3ccnc4ccc(-c5ccc([S+](C)[O-])cc5)cc34)cc2)CC1` (stereo not shown) [N-(4-(4-methylpiperazin-1-yl)phenyl)-6-(4-(methylsulfinyl)phenyl)quinolin-4-amine], the results for the Activity entry at MAPKAPK2 and at PRAK were “MAPKAPK2” and “PRAK”, respectively.
For the compound `CN1CCN(c2ccc(Nc3ccnc4ccc(-c5ccc(OC(F)(F)F)cc5)cc34)cc2)CC1` [N-(4-(4-methylpiperazin-1-yl)phenyl)-6-(4-(trifluoromethoxy)phenyl)quinolin-4-amine], the Activity entry on MAPKAPK2 is given as “MAPKAPK2”; at PRAK, “PRAK”.
Turning to `CN1CCN(c2ccc(Nc3ccnc4ccc(-c5ccsc5)cc34)cc2)CC1` [N-(4-(4-methylpiperazin-1-yl)phenyl)-6-(thiophen-3-yl)quinolin-4-amine], the Activity result is on record as “MAPKAPK2” at MAPKAPK2 and “PRAK” on PRAK.
